The structures appear in SMILES notation. Where only a bound is given, the exact number is not on record here.

The values below come from patent publication US20220098203A1 (priority 2018, published 2022).

The target of the first assay is T1, MAT2A homodimer (Homo sapiens, UniProt P31153).
T1 construct: inferred from the Ni sepharose purification and imidazole elution; made in house; host or cells: SF9 insect cells, recombinant baculovirus (Bac to Bac, pFASTBAC1)
T1 sequence (P31153 whole entry): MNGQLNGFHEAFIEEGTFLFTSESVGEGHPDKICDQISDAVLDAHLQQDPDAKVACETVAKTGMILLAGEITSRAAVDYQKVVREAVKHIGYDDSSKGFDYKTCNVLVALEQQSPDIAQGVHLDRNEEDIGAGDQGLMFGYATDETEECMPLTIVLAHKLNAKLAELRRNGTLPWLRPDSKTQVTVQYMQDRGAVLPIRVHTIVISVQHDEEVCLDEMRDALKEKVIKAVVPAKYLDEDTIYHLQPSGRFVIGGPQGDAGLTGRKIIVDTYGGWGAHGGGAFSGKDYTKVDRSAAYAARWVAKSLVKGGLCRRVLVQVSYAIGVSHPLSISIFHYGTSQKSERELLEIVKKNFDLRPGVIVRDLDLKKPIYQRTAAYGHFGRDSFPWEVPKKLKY
The assay can be described thus: MAT2A biochemical assay (liberated phosphate, PiColorLock Gold). To be noted: Table 5a; MAT2A biochemical assay; read-out: Enzyme Inhibition. The procedure: Mat2A protein was expressed by recombinant baculovirus in SF9 infected cells using the Bac to Bac system cloned into the pFASTBAC1 vector (Invitrogen, Carlsbad, Calif.). Recombinant MAT2A was isolated from the cell lysate of 150 g of infected cells using HP Ni sepharose column chromatography. Recombinant MAT2A homodimer was eluted with 250 and 500 mM imidazole, and fractions containing MAT2A were identified by sodium dodecyl sulfate polyacrylamide gel electrophoresis and pooled.
Test compound was prepared in 100% dimethyl sulfoxide (DMSO) at 50× the desired final concentration. A 1 μL volume of compound dilution was added to 40 μL of enzyme dilution and the mixture was allowed to equilibrate for 60 minutes at 25° C. The enzymatic assay was initiated by the addition of 10 μL of substrate mix (500 μM ATP, pH 7.0, 400 μM L-methionine in 1× assay buffer), and the mixture was incubated for a further 60 minutes at 25° C. The reaction was halted and the liberated phosphate released by the enzyme in stoichiometric amounts by the production of S-adenosyl methionine (SAM) was measured using the PiColorLock Gold kit (Innova Biosciences, UK). Absolute product amounts were determined by comparison to a standard curve of potassium phosphate buffer, pH 8.0.
For the compound `CCOc1ccc2c(n1)N(c1ccc(OC)cc1)C(=O)N(c1ccc(NC)cc1)C2` [Example 121, 7-ethoxy-1-(4-methoxyphenyl)-3-(4-(methylamino)phenyl)-3,4-dihydropyrido[2,3-d]pyrimidin-2(1H)-one], the IC50 lay within 1 to 10 µM. On the same count and under the same terms, then `COc1ccc(N2Cc3cnc(NCC4CC4)nc3N(c3ccc(OC)cc3)C2=O)cc1` [Example 267], with 0.1 to 1 µM. On to `COc1ccc(N2Cc3cnc(NCC(F)(F)F)nc3N(c3ccc(OC)cn3)C2=O)cc1` [Example 257, 3-(4-Methoxyphenyl)-1-(5-methoxypyridin-2-yl)-7-(2,2,2-trifluoroethylamino)-3,4-dihydropyrimido[4,5-d]pyrimidin-2(1H)-one], for which the IC50 fell in the range of 0.1 to 1 µM. On the same count and under the same terms, to `COC(=O)Cc1ccc(N2C(=O)N(c3ccc(OC)cc3)Cc3cnc(NCC(F)(F)F)nc32)cc1` [Example 205, methyl 2-(4-(3-(4-methoxyphenyl)-2-oxo-7-((2,2,2-trifluoroethyl)amino)-3,4-dihydropyrimido[4,5-d]pyrimidin-1(2H)-yl)phenyl)acetate] belongs 1 to 10 µM.

In the case of `CCOc1ccc2c(n1)N(c1ccc(OC)cc1)C(=O)N(c1cncs1)C2` [Example 127, ethoxy-1-(4-methoxyphenyl)-3-(thiazol-5-yl)-3,4-dihydropyrido[2,3-d]pyrimidin-2(1H)-one], the IC50 is 0.1 to 1 µM.

As to `CCOc1ccc2c(n1)N(c1ccc(OC(F)F)cc1)C(=O)N(c1ccnc(OC)c1)C2` [Example 111, 1-(4-(difluoromethoxy)phenyl)-7-ethoxy-3-(2-methoxypyridin-4-yl)-3,4-dihydropyrido[2,3-d]pyrimidin-2(1H)-one], the IC50 is under 0.1 µM. For the compound `CNC(=O)c1ccc(N2C(=O)N(c3ccc(OC)cc3)Cc3cnc(NCC(F)(F)F)nc32)cc1` [Example 277, 4-(3-(4-methoxyphenyl)-2-oxo-7-((2,2,2-trifluoroethyl)amino)-3,4-dihydropyrimido[4,5-d]pyrimidin-1(2H)-yl)-N-methylbenzamide], the IC50 lay in the range of 1 to 10 µM. As to `COc1ccc(N2Cc3cnc(NCC(F)(F)F)nc3N(c3ccc(-c4cscn4)cc3)C2=O)cc1` [Example 210, 3-(4-methoxyphenyl)-1-(4-(thiazol-4-yl)phenyl)-7-((2,2,2-trifluoroethyl)amino)-3,4-dihydropyrimido[4,5-d]pyrimidin-2(1H)-one], the IC50 lay in the range of 0.1 to 1 µM. Same read-out and setting: then `COc1ccc(N2Cc3cnc(NCC(F)(F)F)nc3N(c3cc4ccccc4s3)C2=O)cc1` [Example 200, 1-(benzo[b]thiophen-2-yl)-3-(4-methoxyphenyl)-7-((2,2,2-trifluoroethyl)amino)-3,4-dihydropyrimido[4,5-d]pyrimidin-2(1H)-one], with under 0.1 µM; and `COc1ccc(N2Cc3cnc(NCC(F)(F)F)nc3N([C@H]3CC[C@H](OC)CC3)C2=O)cc1` [Example 258], with 0.1 to 1 µM; and `[2H]C([2H])([2H])Oc1ccc(N2C(=O)N(c3ccc4nn(C)cc4c3)Cc3ccc(OCCC(F)(F)F)nc32)cc1` [Example 166, 1-(4-methoxy-d3-phenyl)-3-(2-methyl-2H-indazol-5-yl)-7-(3,3,3-trifluoropropoxy)-3,4-dihydropyrido[2,3-d]pyrimidin-2(1H)-one], with 0.1 to 1 µM. Same read-out and setting: to `COc1ccc(N2Cc3cnc(NCC(F)(F)F)nc3N(c3ccc(C(C)C)cc3)C2=O)cc1` [Example 212, 1-(4-isopropylphenyl)-3-(4-methoxyphenyl)-7-((2,2,2-trifluoroethyl)amino)-3,4-dihydropyrimido[4,5-d]pyrimidin-2(1H)-one] belongs 0.1 to 1 µM; to `COc1ccc(N2Cc3cnc(NCC(F)(F)F)nc3N(c3cn[nH]c3)C2=O)cc1` [Example 194, 3-(4-methoxyphenyl)-1-(1H-pyrazol-4-yl)-7-((2,2,2-trifluoroethyl)amino)-3,4-dihydropyrimido[4,5-d]pyrimidin-2(1H)-one], 1 to 10 µM; to `COc1ccc(N2C(=O)N(c3ccc4nn(C)cc4c3)Cc3ccc(N4CCCC4)nc32)cc1` [Example 158, 1-(4-methoxyphenyl)-3-(2-methyl-2H-indazol-5-yl)-7-(pyrrolidin-1-yl)-3,4-dihydropyrido[2,3-d]pyrimidin-2(1H)-one], 0.1 to 1 µM. Take `COc1ccc(N2Cc3cnc(NCC(F)(F)F)nc3N(c3ccc(S(C)(=O)=O)cc3)C2=O)cc1` [Example 189, 3-(4-methoxyphenyl)-1-(4-(methylsulfonyl)phenyl)-7-((2,2,2-trifluoroethyl)amino)-3,4-dihydropyrimido[4,5-d]pyrimidin-2(1H)-one]: the IC50 lay in the range of 0.1 to 1 µM. The same measure, in the same setting: to `O=C1N(c2ccc3ncccc3c2)Cc2cnc(NCC(F)(F)F)nc2N1c1ccc(C2CC2)cc1` [Example 226, 1-(4-cyclopropylphenyl)-3-(quinolin-6-yl)-7-((2,2,2-trifluoroethyl)amino)-3,4-dihydropyrimido[4,5-d]pyrimidin-2(1H)-one] belongs under 0.1 µM; to `COCc1ccc(N2C(=O)N(c3ccc(OC)cc3)Cc3cnc(NCC(F)(F)F)nc32)cc1` [Example 209, 1-(4-(methoxymethyl)phenyl)-3-(4-methoxyphenyl)-7-((2,2,2-trifluoroethyl)amino)-3,4-dihydropyrimido[4,5-d]pyrimidin-2(1H)-one], 0.1 to 1 µM; to `CCOc1ccc2c(n1)N(c1ccc(C(F)(F)F)nc1)C(=O)N(c1ccc3nn(C)cc3c1)C2` [Example 150], under 0.1 µM. As for `COc1ccc(N2Cc3cnc(NCC(F)(F)F)nc3N(c3ccc(-c4cn[nH]n4)cc3)C2=O)cc1` [Example 192, 1-(4-(2H-1,2,3-triazol-4-yl)phenyl)-3-(4-methoxyphenyl)-7-((2,2,2-trifluoroethyl)amino)-3,4-dihydropyrimido[4,5-d]pyrimidin-2(1H)-one], the IC50 was in the range of 0.1 to 1 µM. The same measure, in the same setting: then `Cn1cc2cc(N3Cc4nnc(NCC(F)(F)F)cc4N(c4ccc(OC(F)F)cc4)C3=O)ccc2n1` [Example 293], with 0.1 to 1 µM; and `COc1ccc(N2Cc3cnc(NCC(F)(F)F)nc3N(c3ccc4sccc4c3)C2=O)cc1` [Example 254, 1-(benzo[b]thiophen-5-yl)-3-(4-methoxyphenyl)-7-((2,2,2-trifluoroethyl)amino)-3,4-dihydropyrimido[4,5-d]pyrimidin2(1H)-one], with 0.1 to 1 µM; and `CCOc1ccc2c(n1)N(c1ccc(OC)cc1)C(=O)N(c1ccc(F)cc1)C2` [Example 117, 7-ethoxy-3-(4-fluorophenyl)-1-(4-methoxyphenyl)-3,4-dihydropyrido[2,3-d]pyrimidin-2(1H)-one], with 0.1 to 1 µM.

For the compound `[2H]C([2H])([2H])Oc1ccc(N2C(=O)N(c3ccc4nc(C)n(C)c4c3)Cc3c(C)nc(NCC(F)(F)F)nc32)cc1` [Example 435, 3-(1,2-dimethyl-1H-benzo[d]imidazol-6-yl)-1-(4-(methoxy-d3)phenyl)-5-methyl-7-((2,2,2-trifluoroethyl)amino)-3,4-dihydropyrimido[4,5-d]pyrimidin-2(1H)-one], the IC50 was under 0.1 µM. Still for that read-out and setting: to `O=C1N(c2ccc3nccn3c2)Cc2cnc(NCC(F)(F)F)nc2N1c1ccc(OC(F)F)cc1` [Example 225, 1-(4-(difluoromethoxy)phenyl)-3-(imidazo[1,2-a]pyridin-6-yl)-7-((2,2,2-trifluoroethyl)amino)-3,4-dihydropyrimido[4,5-d]pyrimidin-2(1H)-one] belongs under 0.1 µM. For `COc1ccc(N2Cc3cnc(NCC(F)(F)F)nc3N(c3ccc(-c4cc[nH]c4)cc3)C2=O)cc1` [Example 280, 1-(4-(1H-pyrrol-3-yl)phenyl)-3-(4-methoxyphenyl)-7-((2,2,2-trifluoroethyl)amino)-3,4-dihydropyrimido[4,5-d]pyrimidin-2(1H)-one], the IC50 was in the range of 0.1 to 1 µM. Take `COc1ccc(N2Cc3cnc(NCC(F)(F)F)nc3N(c3ccc(-c4cn[nH]c4)cc3)C2=O)cc1` [Example 211, 1-(4-(1H-pyrazol-4-yl)phenyl)-3-(4-methoxyphenyl)-7-((2,2,2-trifluoroethyl)amino)-3,4-dihydropyrimido[4,5-d]pyrimidin-2(1H)-one]: the IC50 was in the range of 0.1 to 1 µM.

Still in this assay, the particulars now being: Table 5a; given as a bound, not a class symbol; read-out: Enzyme Inhibition.
`CCOc1ccc(N2C(=O)N(c3ccc4nn(C)cc4c3)Cc3nnc(OCC)cc32)cc1` [Example 438]: the IC50 is over 10 µM.

Staying with this assay, now noted: Table 5b; Additional Examples; read-out: Enzyme Inhibition.
On to `COc1ccc(-n2c(=O)c3cnc(S(C)(=O)=O)nc3n(-c3ccc(OCc4ccccc4)cc3)c2=O)cc1`, for which the IC50 is over 10 µM.

Turning to `COc1ccc(N2C(=O)N(c3ccc4nn(C)cc4c3)Cc3cnc(NC4CCCC4)nc32)cc1`, the IC50 was in the range of 0.1 to 1 µM. On the same count and under the same terms, then `Cn1cc2cc(N3Cc4ccc(OCC(F)F)nc4NC3=O)ccc2n1`, with over 10 µM; and `COc1ccc(N2Cc3cnc(NCC(F)(F)F)nc3N(c3ccc(Cl)c(C(F)(F)F)c3)C2=O)cc1`, with over 10 µM.

For the compound `COc1ccc(N2Cc3cnc(NCC(F)(F)F)nc3N(c3ccc(C(=O)N(C)C)cc3)C2=O)cc1`, the IC50 is 0.1 to 1 µM. Turning to `COc1ccc(N2Cc3cnc(NCC4CC4)nc3N(c3ccccc3)C2=O)cc1`, the IC50 is over 10 µM. For the compound `COc1ccc(N2Cc3cnc(NCC(F)(F)F)nc3N(c3ncc(OC)cn3)C2=O)cc1`, the IC50 is over 10 µM. Still for that read-out and setting: to `COc1ccc(N2C(=O)N(c3ccc4nn(C)cc4c3)Cc3ccc(N4CCC4)nc32)cc1` belongs over 10 µM. Same read-out and setting: to `COc1ccc(-n2c(=O)c3cnc(SC)nc3n(-c3ccc(OCc4ccccc4)cc3)c2=O)cc1` belongs over 10 µM.
